From article PMC8815882, “Screening the pandemic response box identified benzimidazole carbamates, Olorofim and ravuconazole as promising drug candidates for the treatment of eumycetoma” (PLoS Neglected Tropical Diseases, 2022)
In brackets after ≈: the same amount, converted by molar mass. Like-named read-outs stand apart in the source and are kept apart here.

Tests used:
[1] = tested on: M. mycetomatis genome strain MM55; set-up: method as in PMID 29698504; details: parasitic DHODH inhibitors of the MMV Pathogen Box screened previously; cited from earlier work
[2] = tested on: M. mycetomatis genome strain MM55; experiment: CLSI M38-A2 based in vitro susceptibility screening (XTT or resazurin), growth at fixed concentration; format: cell-based, Madurella mycetomatis; details: Madurella mycetomatis
[3] = tested on: F. senegalensis strain CBS132257; experiment: CLSI M38-A2 based in vitro susceptibility screening at 25 μM; format: cell-based, Falciformispora senegalensis; details: selected if >75% (resazurin) or >80% (XTT) fungal growth inhibited
[4] = tested on: Me. romeroi strain CBS128765; experiment: as above; format: cell-based, Medicopsis romeroi; details: selected if >75% (resazurin) or >80% (XTT) fungal growth inhibited
M. mycetomatis MM55 = experiment: IC50 determination, 2-fold dilution series 16 to 0.03125 μM; format: cell-based, Madurella mycetomatis; details: for IC50 / IC90: Madurella mycetomatis
[5] = tested on: ten different M. mycetomatis isolates; set-up: method as in PMID 24945848, PMID 22964246, PMID 31904836; details: asterisk: determined in previous works ref 19-21; cited from earlier work
eumycetoma = details: cited from earlier work
[6] = tested on: M. pseudomycetomatis strain Mex2A; experiment: CLSI M38-A2 based in vitro susceptibility screening at 25 μM; format: cell-based, Madurella pseudomycetomatis; details: selected if >75% (resazurin) or >80% (XTT) fungal growth inhibited
[7] = tested on: M. tropicana strain CBS206.47; experiment: as above; format: cell-based, Madurella tropicana; details: selected if >75% (resazurin) or >80% (XTT) fungal growth inhibited
[8] = tested on: M. mycetomatis isolate MM55; experiment: M. mycetomatis grain infection model in G. mellonella larvae, survival; format: in vivo, Galleria mellonella; set-up: In vivo efficacy, Larvae survival %: concentration or dose not given beside the values; details: for Larvae survival rate on day ten: 20 μM per larvae at 4, 28, 52 h after infection
[9] = MM55, Table 2, M. mycetomatis MM55, read-out: IC50
[10] = G. mellonella larvae infected with M. mycetomatis

Question: With `O=C(NC1CC1)c1ccc(N2CCOc3ccc(Cl)cc32)s1` [MMV020537] as the compound, how does the “In vitro activity against M. mycetomatis” value [1] read?
Answer: The value was “no activity”.

Question: For `CC(C)C(NC(=O)Cc1cccc2ccccc12)C(=O)Nc1cccc(C#N)c1` (stereo not shown) [MMV020591], which “In vitro activity against M. mycetomatis” value [1] is on record?
Answer: Its value is “no activity”.

Question: What does the source list for `CCC(C)n1ncn(-c2ccc(N3CCN(c4ccc(OCC5COC(Cn6cncn6)(c6ccc(Cl)cc6Cl)O5)cc4)CC3)cc2)c1=O` (stereo not shown) [MMV637528, Itraconazole, reference compound]?
Answer: activity at 25 µM ([2]; mean, read-out: Percentage survival at 25um, 25 uM mean): -1.04%; activity at 25 µM ([2]; replicate A, read-out: Percentage survival at 25um, 25 um A): -2.88%; activity at 25 µM ([2]; replicate B, read-out: Percentage survival at 25um, 25 uM B): -2.55%; activity at 25 µM ([2]; replicate C, read-out: Percentage survival at 25um, 25 uM C): 2.31%; activity at 100 µM ([2]; 100 uM, mean, read-out: Percentage survival at 100um, 100 uM mean): 2.34%; activity at 100 µM ([2]; 100 uM, replicate (first column), read-out: Percentage survival at 100um, 100 uM A): -3.71%; activity at 100 µM ([2]; 100 uM, replicate (second column), read-out: Percentage survival at 100um, 100 uM A): 3.66%; activity at 100 µM ([2]; 100 uM, replicate (third column), read-out: Percentage survival at 100um, 100 uM A): 7.05%; Inhibits growth of Falciformispora senegalensis at 25 μM [3]: did not inhibit the growth; Inhibits growth of Medicopsis romeroi at 25 μM [4]: did not inhibit the growth; IC50 (M. mycetomatis MM55; [9]): 1.13 µM; IC50 (M. mycetomatis MM55; MM55, mean, read-out: IC50 mean): 1.13 µM; IC90 (M. mycetomatis MM55; MM55, read-out: IC90 mean): 2.21 µM; IC50 (M. mycetomatis MM55; MM55, replicate 1, read-out: IC50 1): 1.7 µM; IC90 (M. mycetomatis MM55; MM55, replicate 1, read-out: IC90 1): 3.8 µM; IC50 (M. mycetomatis MM55; MM55, replicate 2, read-out: IC50 2): 0.74 µM; IC90 (M. mycetomatis MM55; MM55, replicate 2, read-out: IC90 2): 1.32 µM; IC50 (M. mycetomatis MM55; MM55, replicate 3, read-out: IC50 3): 0.94 µM; IC90 (M. mycetomatis MM55; MM55, replicate 3, read-out: IC90 3): 1.5 µM; MIC50 [5]: 0.05 µM (≈ 0.0353 µg/mL); MIC range [5]: <0.02 to 0.25 µM; Cure rate of patients (eumycetoma; eumycetoma patients, itraconazole with surgery): 8% - 26%

Question: With `Cc1cc(-c2ccccc2)c(C(=O)C(=O)Nc2ccc(N3CCN(c4ncc(F)cn4)CC3)cc2)n1C` [MMV1782354, Olorofim] as the compound, how does the activity at 25 µM ([2]; mean of three, M. mycetomatis MM55, read-out: Percentage survival at 25um, 25 uM mean) read?
Answer: Its activity at 25 µM is 8.22%.

Question: What about the activity at 25 µM ([2]; replicate A, M. mycetomatis MM55, read-out: Percentage survival at 25um, 25 um A) of the same compound?
Answer: Its activity at 25 µM is 5.03%.

Question: And the activity at 25 µM ([2]; replicate B, M. mycetomatis MM55, read-out: Percentage survival at 25um, 25 uM B)?
Answer: Its activity at 25 µM is 11.4%.

Question: And the activity at 25 µM ([2]; replicate C, M. mycetomatis MM55, read-out: Percentage survival at 25um, 25 uM C)?
Answer: Its activity at 25 µM is 8.27%.

Question: And the activity at 100 µM ([2]; 100 uM, mean of three, M. mycetomatis MM55, read-out: Percentage survival at 100um, 100 uM mean)?
Answer: The activity at 100 µM was 8.8%.

Question: And the activity at 100 µM ([2]; 100 uM, replicate 1, M. mycetomatis MM55, read-out: Percentage survival at 100um, 100 uM A (first replicate column))?
Answer: Its activity at 100 µM is 0.903%.

Question: What about the Percent fungal survival at 100 µM ([2]; 100 uM, replicate 2, M. mycetomatis MM55, read-out: Percentage survival at 100um, 100 uM A (second replicate column)) of the same compound?
Answer: Its Percent fungal survival at 100 µM is 10.2%.

Question: What about the activity at 100 µM ([2]; 100 uM, replicate 3, M. mycetomatis MM55, read-out: Percentage survival at 100um, 100 uM A (third replicate column)) of the same compound?
Answer: The activity at 100 µM was 15.3%.

Question: What about the “Inhibits growth of Madurella pseudomycetomatis at 25 μM” value [6] of the same compound?
Answer: The value was “able to inhibit the growth”.

Question: And the “Inhibits growth of Madurella tropicana at 25 μM” value [7]?
Answer: The value was “able to inhibit the growth”.

Question: What about the “Inhibits growth of Falciformispora senegalensis at 25 μM” value [3] of the same compound?
Answer: Its value is “no activity”.

Question: And the “Inhibits growth of Medicopsis romeroi at 25 μM” value [4]?
Answer: The value was “no activity”.

Question: And the “Drug static or cidal” value (M. mycetomatis MM55; M. mycetomatis)?
Answer: Its value is “Cidal”.

Question: What about the IC50 (M. mycetomatis MM55; [9]) of the same compound?
Answer: The IC50 was less than 0.016 µM.

Question: What about the IC50 (M. mycetomatis MM55; MM55, mean of replicates, read-out: IC50 mean) of the same compound?
Answer: The IC50 was less than 0.098 µM.

Question: And the IC50 (M. mycetomatis MM55; MM55, replicate 1, read-out: IC50 1 um)?
Answer: The IC50 was less than 0.098 µM.

Question: What about the IC90 (M. mycetomatis MM55; MM55, replicate 1, read-out: IC90 1 um) of the same compound?
Answer: The IC90 was 3.1 µM.

Question: What about the IC50 (M. mycetomatis MM55; MM55, replicate 2, read-out: IC50 2 um) of the same compound?
Answer: The IC50 was less than 0.098 µM.

Question: And the IC90 (M. mycetomatis MM55; MM55, replicate 2, read-out: IC90 2 um)?
Answer: The IC90 was less than 0.098 µM.

Question: What about the IC50 (M. mycetomatis MM55; MM55, replicate 3, read-out: IC50 3 um) of the same compound?
Answer: Its IC50 is less than 0.098 µM.

Question: And the IC90 (M. mycetomatis MM55; MM55, replicate 3, read-out: IC90 3 um)?
Answer: Its IC90 is less than 0.098 µM.

Question: What about the “Larvae survival rate on day ten” value ([8]; listed as Olorofim) of the same compound?
Answer: The value was 33%.

Question: And the “Larvae survival rate on day ten” value ([8]; listed as olorofim)?
Answer: Its value is 33.3%.

Question: And the “In vivo efficacy, Enhanced survival compared to control?” value [8, 10]?
Answer: The value was “yes **”.

Question: And the “In vivo efficacy, Larvae survival %” value [8, 10]?
Answer: The value was 0.0443%.

Question: What about the “MIC50” value [5] of the same compound?
Answer: The value was 0.06 µM (≈ 0.0299 µg/mL).

Question: And the “MIC range” value [5]?
Answer: The value was 0.004 to 0.13 µM.

Question: Which “Inhibits growth of Madurella pseudomycetomatis at 25 μM” value [6] does the source give for `CN(C/C=C/C#CC(C)(C)C)Cc1cccc2ccccc12` [Terbinafine] here?
Answer: Its value is “not the Madurella species”.

Question: What about the “Inhibits growth of Falciformispora senegalensis at 25 μM” value [3] of the same compound?
Answer: Its value is “inhibit the growth”.

Question: What about the “Inhibits growth of Medicopsis romeroi at 25 μM” value [4] of the same compound?
Answer: The value was “inhibit the growth”.

Question: And the “Cure rate of patients” value (eumycetoma; Senegal, 500 mg twice daily for 24-48 weeks combined with surgery)?
Answer: The value was 30%.
